Measurements as given in US8053409B2, “Agent for prophylaxis of reflex sympathetic dystrophy after cerebral apoplexy” (Asahi Kasei Pharma Corporation, priority 2006, dated 2011).

Assays:
[1] = tested on: patients with hemiplegia attributed to cerebrovascular disease (stroke) who developed RSD (shoulder-hand syndrome); assay: Test of treatment of post-stroke RSD; format: in vivo, human; settings: therapeutic administration group, at completion of administration
Description: EL was administered after the onset of RSD (shoulder-hand syndrome) in the same use and dose as in Example 1 to 11 patients with hemiplegia attributed to cerebrovascular disease (stroke) at Brunnstrom stage III or lower in either the upper limb or a finger on admission, who developed RSD (shoulder-hand syndrome). These patients were classified into a therapeutic administration group. On the other hand, the EL administration group of Example 1 was compared as a control (preventive administration group) with the therapeutic administration group.

[2] = tested on: patients with hemiplegia attributed to cerebrovascular disease (stroke); assay: Test of prevention of onset of post-stroke RSD; format: in vivo, human
Description: Test subjects were 33 patients with hemiplegia attributed to cerebrovascular disease (stroke) at Brunnstrom stage III or lower in either the upper limb or a finger on admission. Patients already developing RSD (shoulder-hand syndrome) on admission and patients with pain in the shoulder joint or swollen paralyzed limbs were excluded from the test. […] On the other hand, 21 test subjects were classified into a rehabilitation alone group (control group) and compared with the EL administration group. Physical therapy and therapeutic exercise, occupational therapy, and the management of the paralyzed limbs were performed thoroughly in all the cases. […] EL administration was initiated 11 to 59 days after an attack of stroke (25.8 days on average) and continued until 5 months after the attack of stroke. The same observation period was applied to the control group. The test subjects were diagnosed as developing RSD (shoulder-hand syndrome) if they had diffuse pain not localized to the shoulder joint, edema involving skin color changes, skin temperature abnormalities, and range of motion limitations, and the practice of their rehabilitation was restricted. These criteria agreed to Veldman's diagnostic criteria or diagnostic criteria, for CRPS-type 1 provided by the International Association for the Study of Pain.
Activities of daily living (ADL) were evaluated on the basis of the Barthel Index (BI) and the range of motion (ROM) of shoulder joint. The movable range of shoulder joint (also referred to as “shoulder ROM”) was regarded as restricted (Shoulder-ROM-restrictions were present.) if either abduction or flexion was restricted in measurement. The test subjects were also examined for sensory impairment, aphasia, and unilateral spatial neglect on admission.
Statistical analysis was conducted with unpaired t-test, Fisher's exact test, or Wilcoxon test, and 5% or lower significance level was regarded as being significant.

[3] = tested on: RSD triggered and developed by a trauma or surgical invasion; settings: subjects having no anamnesis of RSD, after a trauma or surgical invasion; cited from earlier work
[4] = EL preventive administration group (12 subjects), 20 units intramuscularly once a week, continued until 5 months after stroke
[5] = preventive administration group, at completion of administration

Row | Molecule | Barthel index, Average ± SE [1] | Barthel index, Median [1] | No RSD, the number of persons [1] | Incidence of RSD converted to all patients with hemiplegia attributed to stroke in the facility ([2]; EL administration group, control group approximately 8.7%) | The number of test subjects developing post-stroke RSD: Developed [2, 4] | The number of test subjects developing post-stroke RSD: Not developed [2, 4] | Cases that developed RSD (incidence) ([2]; EL preventive administration group, 1 of the 12 cases, control group 52.4%) | Incidence of RSD when EL administration was initiated within 48 days after stroke ([2]; cases with administration initiated within 48 days after stroke) | Barthel index, Average ± SE [2, 5] | Barthel index, Median [2, 5] | No RSD, the number of persons [2, 5] | Incidence of RSD until discharge from hospital compared with the unadministered patient group ([2]; repetitive administration to hemiplegia patients without RSD on admission) | Preventive effect on the initial onset of RSD [3]
1 | 1-butyric acid-7-(L-2-aminobutyric acid)-26-L-aspartic acid-27-L-valine-29-L-alanine-calcitonin [elcatonin] | 31.8 ± 7.8 | 25 | 0 | approximately 1.3% | 1 | 11 | 8.3% | 0% | 60.8 ± 9.3 | 72.5 | 11 | suppressed significantly and remarkably | 
2 | O=C1O[C@H]([C@@H](O)CO)C(O)=C1O [vitamin C] |  |  |  |  |  |  |  |  |  |  |  |  | preventive effect
